Data: patent publication US20130317096A1, “SYNERGISTIC INTERACTION OF AT LEAST ONE VITAMIN E COMPONENT AND TYROSINASE INHIBITORS FOR DERMATOLOGICAL APPLICATIONS” (Davos Life Science Pte Ltd, priority 2010, published 2013)
Entries after “also recorded” stand apart in the source; their conditions may differ.

What was measured:
B16 cells = test: Melanin content of pre-treated B16 cells after UV exposure; type: cell-based, mouse; settings: 10 minutes UV exposure (short and long wave UV)
Experimental: (§1) The UVB source for cell irradiation was provided using a UVP UVM-57 handheld UV lamp (UVP Inc, Upland, Calif., USA).
Harvested cell pellets were dissolved in 1 ml of 1N sodium hydroxide before incubation at 80° C. The melanin content was then immediately measured at 420 nm. The absorbance percentage values of the treated groups in comparison to untreated controls were calculated against per μg of the determined total protein content.

B16 melanoma cells [1] = test: Anti-pigmentation effect, photographs of cell pellets; type: cell-based, mouse; settings: 20 μM
Experimental: At different time points, cells were harvested using trysin-EDTA and the cell pellets were washed once with phosphate-buffered saline (PBS). A sample amount from each compound treatment group was divided into two equal parts. These cell pellets were then stored at −80° C. prior to the measurement of the tyrosinase activity and melanin content.

[2] = test system: cleaved caspase 3 and PARP; test: Western blot of apoptotic molecules; type: cell-based, mouse; settings: B16 melanoma cells
B16 melanoma cells [3] = test: MTT cell viability assay; type: cell-based, mouse; settings: 24 hrs of treatment, increasing dosages
Experimental: B16 mouse melanoma cells were purchased from (ATCC, Manassas, Va., USA).
The base medium for the cell line was Dulbecco's modified Eagle's medium (DMEM). To make the complete growth medium, fetal bovine serum (final concentration, 10%) was added to the base medium. Tocotrienol (T3) and tocopherol (TP) isomers and the palm tocotrienol-rich fraction (TRF) were purified from a palm fatty acid distillate (PFAD) using molecular distillation and Novasep® equipment (Novasep, Pompey, France). The extraction facility is located in Tuas, Singapore. The PFAD feed was purchased from Kuala Lumpur Kepong Berhad (Kuala Lumpur, Malaysia). The purity of the vitamin E isomers was verified by HPLC and gas chromatography (GC) percentage peak area.
For the cell viability study, 5×10^3 cells re-suspended in 100 μl of medium were plated into each well of a 96-well plate. The cells were then treated with different concentrations of the vitamin-E isomers for 24 hrs. After the treatment, 20 μl of MTT solution (1 mg/ml in PBS; Sigma-Aldrich, St. Louis, Mo., USA) was added to each well and the cells were incubated at 37° C. for 2 hrs. The formazan crystals were then re-suspended in 200 μl of DMSO and the intensity at 595 nm was measured.

tyrosinase mRNA = test: Reverse transcriptase PCR of tyrosinase mRNA; type: cell-based, mouse; settings: B16 melanoma cells
Source text: Total RNA was isolated using Trizol reagent according to the manufacturer's protocol (Invitrogen, Carlsbad, Calif., USA). cDNA was synthesized using the SuperScript First Strand Synthesis System (Invitrogen, Carlsbad, Calif., USA) and was then amplified by PCR with tyrosinase-specific primers (forward primer, tyrosinase-S,5′-[…]-3′ [−2236/−2217] (SEQ ID NO: 1) and reverse primer, tyrosinase-AS,5′-[…]-3′ [+63/+42]) (SEQ ID NO: 2) and GAPDH specific primers: 5′ to 3′F […] (SEQ ID NO: 3); 5′ to 3′R […] (SEQ ID NO: 4). The PCR cycling protocol was as follows: 30 cycles for 10 min at 95° C., 30 sec at 95° C., 30 sec at 55° C., 1 min at 72° C., and 10 min at 72° C. Glyceraldehyde 3-phosphate dehydrogenase (GAPDH) was amplified as an internal control. The PCR products were electrophoresed on a 2% agarose gel and analyzed using a gel documentation system.

tyrosinase = test: UV-induced tyrosinase protein expression, Western blot; type: cell-based, mouse
Experimental: as §1
Briefly, cell lysates were prepared by suspending cell pellets in lysis buffer (50 mmol/l Tris-HCl [pH 8.0], 150 mmol/l NaCl, 1% NP40, 0.5% deoxycholate, 0.1% SDS, 1 mg/ml aprotinin, 1 μg/ml leupeptin, and 1 mmol/l phenylmethylsulfonyl fluoride). The protein concentration was measured using the DC Protein Assay kit (Bio-Rad, Hercules, Calif., USA). An equal amount of protein (30 μg) was loaded onto a 10% SDS polyacrylamide gel for electrophoresis, then transferred onto a polyvinylidene difluoride membrane (Amersham, Piscataway, N.J., USA). The membrane was then incubated with primary antibodies for 1 hr at room temperature against tyrosinase, Id1, and beta-actin (Santa Cruz Biotechnology, Inc., Santa Cruz, Calif., USA). After incubation with appropriate secondary antibodies, signals were visualized by an ECL Western blotting system (Amersham). The expression of β-actin was assessed as an internal loading control for total cell lysate.

[4] = test system: B16 cells xenografted on the flank of nude mice; test: B16 xenograft model in nude mice; type: in vivo; settings: cells pre-treated with 20 μM for 1 week, 14 days oral supplementation
Experimental: The experimental protocol was approved by the IACUC Committee of the A-STAR Biological Resource Centre (BRC) at Biopolis (IACUC no. 080302). Male BALB/c athymic nude mice (4-5 weeks old, 18-22 g) were purchased from The Jackson Laboratory (Bar Harbor, Me., USA). Mice were housed in Department 1 of the Biological Resource Centre (Biopolis, Singapore) under the standard condition (20.8±2° C., 55±1% relative humidity, 12 hrs light/dark cycle) with rodent diet (Harlan Laboratories, Inc., Indianapolis, Ind., USA) and chlorinated reverse osmosis water supplied in a pathogen-free environment. Briefly, B16 cells were pre-treated with 20 μM of γ- and δ-T3, or palm TRF for 1 week. Then, 5×10^5 pre-treated B16 cells in 100 μl serum-free DMEM were injected subcutaneously into the flank of nude mice using a 1-ml syringe with a 26-gauge needle (Becton Dickinson, Franklin Lakes, N.J., USA). This was followed by a 2-week oral supplementation of γ- and δ-T3, or palm TRF at the dose of 100 mg/kg/day. Altogether, there are four experimental groups: G1, vehicle control; G2, γT3 (100 mg/kg/d); G3, δT3 (100 mg/kg/d); and G4, full spectrum palm TRF (100 mg/kg/d). The mice were weighed daily and the tumors were measured using a Digital Carbon Fiber Caliper (Fisher Scientific, Pittsburgh, Pa., USA) at the 5th and 14th day after innoculation. After 14 days of treatment, the mice were euthanized by CO2 inhalation. Blood samples were collected through cardiac bleeding using a 26-gauge needle. Blood samples were incubated at room temperature for 30 min, followed by centrifugation at 4400 rpm for 30 min at 4° C. Serum, as the supernatant, was separated from plasma and stored at −80° C. Tumors, liver, kidney, spleen, lung, heart, and skin were harvested.

CC(C)=CCC/C(C)=C/CC/C(C)=C/CCC1(C)CCc2cc(O)c(C)c(C)c2O1 (stereo not drawn) [γ-tocotrienol, 7,8-dimethyltocotrienol]
melanin content after UV exposure (B16 cells): significantly suppressed the melanin content | cell pellet pigmentation (B16 melanoma cells [1]; listed as gamma T3): lighter cell pigmentation | cell pellet pigmentation (B16 melanoma cells [1]; listed as γT3): lighter cell pigmentation | induction of apoptotic molecules (cleaved caspase 3 and PARP) [2]: induced critical apoptotic molecules in a dose-dependent manner | induction of apoptotic molecules (cleaved caspase 3 and PARP) ([2]; listed as γ-T3): induced cellular apoptosis | B16 melanoma cell viability / proliferation rate (B16 melanoma cells [3]): inhibited the proliferation rate of B16 melanoma cells in a dose-dependent fashion; also recorded: inhibit B16 melanoma cell viability at high concentrations | tyrosinase mRNA (tyrosinase mRNA): No change of tyrosinase mRNA | tyrosinase mRNA (tyrosinase mRNA; listed as γ-T3): not affected | tyrosinase protein expression of B16 cells exposed to UV (tyrosinase; UV 1, 10, 30 and 60 minutes): significantly suppressed the tyrosinase protein expression | long-term inhibitory effect on UVB-induced tyrosinase activation (tyrosinase; long-term UVB): comparable | pigmentation of solid tumors [4]: lighter in colour compared to controls | tumor size [4]: significantly smaller
